Source: the NIST ThermoML archive (doi:10.1016/j.tca.2011.06.020)

Test: xn = mol fraction of the nth substance listed
Conditions: 101 kPa, Liquid; for speed of sound: Sing-around technique in a fixed-path interferometer; for mass density: Vibrating tube method

Cc1ccccc1N [2-methylaniline] + C1CCOCC1
Conditions	mass density, 298.15 K [kg/m3]	mass density, 303.15 K [kg/m3]	mass density, 308.15 K [kg/m3]	speed of sound, 298.15 K [m/s]	speed of sound, 303.15 K [m/s]	speed of sound, 308.15 K [m/s]
x1 = 0.0732	890.691	885.73	880.749	1296.4	1274.1	1252.5
x1 = 0.1342	899.769	894.897	890.021	1318.6	1296.8	1275.8
x1 = 0.1768	905.846	900.991	896.174	1334	1312.5	1292
x1 = 0.2207	911.867	907.057	902.258	1349.8	1328.6	1308.5
x1 = 0.2721	918.66	913.86	909.112	1368.2	1347.1	1327.6
x1 = 0.3328	926.351	921.578	916.872	1389.3	1368.7	1349.5
x1 = 0.3562	929.219	924.445	919.758	1397.3	1376.9	1357.8
x1 = 0.3901	933.275	928.536	923.89	1409	1388.5	1369.8
x1 = 0.4288	937.818	933.094	928.469	1421.8	1401.6	1383.1
x1 = 0.4567	940.995	936.325	931.715	1431	1411.1	1392.3
x1 = 0.5014	945.986	941.37	936.823	1445.5	1425.7	1407.2
x1 = 0.5362	949.788	945.194	940.693	1456.6	1437	1418.2
x1 = 0.5982	956.336	951.867	947.455	1475.7	1456.5	1437.6
x1 = 0.6243	959.04	954.607	950.235	1483.6	1464.7	1445.7
x1 = 0.6644	963.103	958.737	954.427	1495.7	1477	1457.6
x1 = 0.7125	967.87	963.596	959.361	1510.2	1491.3	1471.8
x1 = 0.7703	973.454	969.292	965.131	1527.4	1508.7	1488.6
x1 = 0.8025	976.501	972.384	968.276	1537	1518.1	1497.9
x1 = 1	994.351	990.224	986.069	1602.6	1577.8	1558.4
